According to patent US20030017567A1, “Biological sample processing methods and compositions that include surfactants” (3M Innovative Properties Company, priority 2001, published 2003):
Marks after values point to notes of the source that are not given here.

Assays:
[1] = target: T1, AMPLITAQ DNA polymerase (Taq polymerase) (Thermus aquaticus, UniProt P19821); experiment: PCR amplification of PERV protease fragment (327 bp) in presence of dye/surfactant; product on agarose gel or quantitated with Agilent 2100 Bioanalyzer; type: biochemical; conditions: for effect of dye on PCR (Example 6): dye at typical concentrations of 0.1 or 0.2 mg/mL, without surfactant, agarose gel
T1 construct: purchased Applied Biosystems, Foster City, Calif
Method: Typically, a fresh stock solution of 5 milligrams (mg) of a water-insoluble near-infrared dye (NIR dye) was dissolved in 50 microliters (μL) of dimethylsulfoxide (DMSO) and brought up in water to a final volume of 1 milliliter (mL). This was then diluted out to various concentrations of dye. The diluted dye (typically 0.2 mg/mL) was then added to a surfactant solution (typically 4 wt-%) to form a complex. The complex was added to a PCR reaction.
PCR reactions were set up for a conserved sequence (327 bp) in the protease region of the genome of porcine endogenous retrovirus using a plasmid containing the PERV protease fragment, a forward primer and a reverse primer designed using a primer express program from Applied Biosystems, and AMPLITAQ DNA polymerase cocktail (commercially available from Applied Biosystems, Foster City, Calif.) and cycled in a thermocycler (9700, Applied Biosystems). The PCR reactions were typically carried out in 25-μL volumes. The NIR dye/surfactant mixture was added to the PCR cocktail to give the desired concentration of dye and surfactant in a total volume of 25 μL. A typical PCR cocktail contains 10x buffer, 2.5 μL; dNTPs, 2.0 μL (200 μM of each); forward primer, 0.5 μL (200 nM); reverse primer, 0.5 μL (200 nM); template DNA, 1.0 (1 ng/μL); Amplitaq, 0.25 μL (1.25 units); sterile water, 18.25 μL.
The products of PCR reactions were run on 1% agarose gel containing ethidium bromide and visualized using an ALPHA IMAGER (Alpha Innotech Corp., San Leandro, Calif.). […] However, a higher concentration of dye (0.1 mg/mL) for effective heating was needed. Thus, for all further PCR experiments, a dye concentration of 0.1 mg/mL or higher was used. […] Taq polymerase was tested from different manufacturers (Promega Corp., Madison, Wis.; Roche Biochemicals, Indianapolis, Ind.; Eppendorf, Scientific Inc., Westbury, N.Y.; Sigma, St. Louis, Mo.) and all the Taq polymerases were inhibited by 785 WS and SDA 8080.
In order to find out the optimum concentration of surfactant for PCR with NIR dye (785 WS and SDA 8080), the surfactant concentration in PCR reaction was varied from 0.1 wt-% to 4 wt-%. The PCR product formed was quantitated using DNA 7500 Labchip kit in Agilent 2100 Bioanalyzer (Agilent Inc, Paloalto, Calif.). The results shown in Table 3 indicate that increasing the concentration of surfactant relative to dye assists in the formation of PCR product.
A variety of dyes (NIR dyes such as IR782, IR768, SDA 2141, SDA8327, IR 830 WS, fluorescent dyes like oligreen and visible dyes like dichlorophenol, indophenol, saffranin, crystal violet, and commercially available food coloring) at typical concentrations of 0.1 or 0.2 mg/mL were allowed to interact with 4 wt-% PLURONIC F127 and each mixture was added to the PCR cocktail. The reaction was set up to amplify PERV protease fragment as described in Example 2 and the products of the reaction were analyzed by agarose gel electrophoresis.

[2] = Thermal degradation of dye: absorbance at beginning and end of thermal cycling; type: physicochemical
Excerpt: The dyes SDA 8080 and 785 WS were mixed with a variety of surfactants such as PLURONIC F-127, TWEEN-20, TRITON X-100, NP-40, BRIJ-97 and cycled in a thermocycler (9700, Applied Biosystems). Absorbance readings were taken at the beginning and end of thermal cycling using HP Chem Station (HP 8453, Agilent Technologies, Palo Alto, Calif.) at 785 nm for the 785 WS dye and 1040 nm for the SDA 8080 dye. […] Thus, the surfactant helps to protect thermal degradation of the dye.

[3] = Laser stability / photobleaching of dye solution on repeated laser exposure; type: physicochemical; conditions: for Laser Stability: 25 exposures
Method: An 813-nm diode laser source at 1.2W (1.9A) (Opto Power Corp., Tucson, Ariz. ) was used to heat a 10μL volume of near-IR dye at a concentration (0.1 mg/mL for 785 WS, 0.2 mg/iL for SDA 8080) to yield a 35° C. rise in temperature. The laser was manually turned on long enough for the temperature in a 10-μL well to increase by 35° C. (1-3 seconds) and was manually turned off when that level was attained. The temperature data was obtained using a thermocouple in the well, and the transmittance data was obtained via a power meter whose signals were digitized and graphically interpreted.
In another experiment, the 10 μL well was used to see if the dye/surfactant mixture could withstand laser cycling over a period of 30 cycles. The laser power was systematically varied from 60° C. to 94° C., 30 times.
Unlike in Example 8, some dyes and dye/surfactant complexes undergo photodegradation when exposed to laser beam. […] Specifically, in the case of 785 WS/BRIJ-97, the addition of ascorbic acid (typically 5 mg/mL) helped reduce the amount of photobleaching from 100% to 20% after 30 cycles. In some circumstances, rapid/controlled photodegradation may be desired. […] This would allow DNA tags (fluorescent or vis/IR) to be monitored at the end of the PCR reaction.
Vitamin E-TPGS has both surfactant as well as antioxidant properties.

[4] = 785 WS 0.1 mg/mL, surfactant 0.1 wt %
[5] = 785 WS 0.1 mg/mL, surfactant 0.5 wt %
[6] = 785 WS 0.1 mg/mL, surfactant 1 wt %
[7] = 785 WS 0.1 mg/mL, surfactant 2 wt %
[8] = 785 WS 0.1 mg/mL, surfactant 4 wt %
[9] = SDA 8080 0.2 mg/mL, surfactant 0.1 wt %
[10] = SDA 8080 0.2 mg/mL, surfactant 0.5 wt %
[11] = SDA 8080 0.2 mg/mL, surfactant 1 wt %
[12] = SDA 8080 0.2 mg/mL, surfactant 2 wt %
[13] = SDA 8080 0.2 mg/mL, surfactant 4 wt %
[14] = surfactant 4 wt %, 785 WS 0 mg/mL (no dye), data from a different experiment under identical PCR conditions
[15] = surfactant 4 wt %, SDA 8080 0 mg/mL (no dye), data from a different experiment under identical PCR conditions
[16] = 785 WS (0.1 mg/mL), surfactant 0.1 wt %, absorbance at 785 nm
[17] = 785 WS (0.1 mg/mL), surfactant 4 wt %, absorbance at 785 nm
[18] = SDA 8080 (0.2 mg/mL), surfactant 0.1 wt %, absorbance at 1040 nm
[19] = SDA 8080 (0.2 mg/mL), surfactant 4 wt %, absorbance at 1040 nm
[20] = 785 WS (0.1 mg/mL), surfactant 20 wt %, * can be made laser stable after addition of antioxidant
[21] = SDA 8080 (0.2 mg/mL), surfactant 20 wt %
[22] = 785 WS (0.1 mg/mL), surfactant 0.5 wt %, absorbance at 785 nm
[23] = 785 WS (0.1 mg/mL), surfactant 2 wt %, absorbance at 785 nm
[24] = SDA 8080 (0.2 mg/mL), surfactant 0.5 wt %, absorbance at 1040 nm
[25] = SDA 8080 (0.2 mg/mL), surfactant 2 wt %, absorbance at 1040 nm

T1 sequence (P19821 whole entry, the tested form may be a part): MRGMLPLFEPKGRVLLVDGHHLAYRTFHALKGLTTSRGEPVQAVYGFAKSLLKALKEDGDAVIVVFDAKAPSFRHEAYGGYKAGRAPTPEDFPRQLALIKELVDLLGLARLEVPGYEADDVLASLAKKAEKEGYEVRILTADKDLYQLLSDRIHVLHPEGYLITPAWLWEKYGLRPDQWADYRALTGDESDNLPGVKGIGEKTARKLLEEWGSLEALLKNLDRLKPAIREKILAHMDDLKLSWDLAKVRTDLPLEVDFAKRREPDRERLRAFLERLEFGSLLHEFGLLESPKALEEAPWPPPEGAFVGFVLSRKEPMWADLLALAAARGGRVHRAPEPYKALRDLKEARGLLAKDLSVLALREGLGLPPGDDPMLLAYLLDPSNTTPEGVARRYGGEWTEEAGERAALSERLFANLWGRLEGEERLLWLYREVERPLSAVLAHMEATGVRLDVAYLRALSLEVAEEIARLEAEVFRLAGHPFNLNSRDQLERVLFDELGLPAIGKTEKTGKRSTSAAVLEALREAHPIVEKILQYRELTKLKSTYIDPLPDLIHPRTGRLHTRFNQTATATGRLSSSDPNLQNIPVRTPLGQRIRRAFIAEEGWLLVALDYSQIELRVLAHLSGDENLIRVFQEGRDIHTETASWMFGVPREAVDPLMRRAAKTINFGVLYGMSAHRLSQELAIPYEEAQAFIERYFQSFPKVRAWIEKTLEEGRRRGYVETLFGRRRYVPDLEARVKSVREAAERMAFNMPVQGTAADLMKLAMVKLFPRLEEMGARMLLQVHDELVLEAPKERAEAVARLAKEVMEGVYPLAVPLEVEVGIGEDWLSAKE

Molecule	PCR Product [1, 4] [ng/µL]	PCR Product [1, 5] [ng/µL]	PCR Product [1, 6] [ng/µL]	PCR Product [1, 7] [ng/µL]	PCR Product [1, 8] [ng/µL]	PCR Product [1, 10] [ng/µL]	PCR Product [1, 11] [ng/µL]	PCR Product [1, 12] [ng/µL]	PCR Product [1, 13] [ng/µL]	Thermal Degradation [2, 17] [%]	Thermal Degradation [2, 19] [%]	effect of dye on PCR (Example 6) [1]	other results
Octyl phenoxy polyethoxyethanol [TRITON X-100]	0	0.1	0.4	2.2	1.3	2.3	1.4	1.9	1.1	4.6	0.0		PCR Product [1, 9]: 0 ng/µL; PCR Product [1, 14]: 23.8* ng/μL; PCR Product [1, 15]: 23.8* ng/μL; Thermal Degradation [2, 16]: 24.8%; Thermal Degradation [2, 18]: 76.0%; Thermal Degradation ([2]; SDA 8080 (0.2 mg/mL), surfactant 20 wt %, absorbance at 1040 nm): 7.1%; Laser Stability [3, 20]: −* (greater than 20% degradation in dye absorbance over a period of 25 exposures); Laser Stability [3, 21]: + (less than a 20% degradation in dye absorbance over a period of 25 exposures)
CN(C)c1ccc(C(=C2C=CC(=[N+](C)C)C=C2)c2ccc(N(C)C)cc2)cc1 [crystal violet]												inhibited PCR	
O=C1O[C@H]([C@@H](O)CO)C(O)=C1O [ascorbic acid]													effect of antioxidant on photobleaching of 785 WS ([3]; added to virtually any of the surfactants tested with 785 WS): reduced photobleaching significantly
Nonyl phenoxy poly (ethyleneoxy) ethanol [NP-40]	0	0	0	0.3	3.8	23.3	23.7	17.2	18	27.4	48.8		PCR Product ([1]; SDA 8080 0.1 mg/mL, surfactant 0.1 wt %): 0 ng/µL; PCR Product [1, 14]: 24.2* ng/μL; PCR Product [1, 15]: 24.2* ng/μL; Thermal Degradation [2, 16]: 20.2%; Thermal Degradation [2, 18]: 82.1%
d-Alpha tocopheryl polyethylene glycol 1000 [Vitamin E TPGS]										5.3	92.3		Thermal Degradation [2, 22]: 6.5%; Thermal Degradation [2, 23]: 4.0%; Thermal Degradation [2, 24]: 89.5%; Thermal Degradation [2, 25]: 88.9%; Laser Stability ([3]; 785 WS (0.1 mg/mL), surfactant 4 wt %, * can be made laser stable after addition of antioxidant): + (less than a 20% degradation in dye absorbance over a period of 25 exposures); light stability ([3]; Vitamin E-TPGS 4 wt-% added to 785 WS 0.1 mg/mL, after 30 cycles of laser exposure): significantly increased
Cc1cc2nc3cc(C)c(N)cc3[n+](-c3ccccc3)c2cc1N.[Cl-] [saffranin]												inhibited PCR	
Polyoxyethylene (10) oleyl ether [BRIJ 97]	0	0	0	13.8	21.9	19.3	23.5	25.5	22.6	96.0	6.0		PCR Product [1, 9]: 18.7 ng/µL; Thermal Degradation ([2]; 785 WS (0.1 mg/mL), surfactant 0.01 wt %, absorbance at 785 nm): 79.0%; Thermal Degradation [2, 22]: 95.0%; Thermal Degradation ([2]; 785 WS (0.1 mg/mL), surfactant 1 wt %, absorbance at 785 nm): 94.5%; Thermal Degradation [2, 23]: 94.5%; Thermal Degradation ([2]; SDA 8080 (0.2 mg/mL), surfactant 0.01 wt %, absorbance at 1040 nm): 86.2%; Thermal Degradation [2, 24]: 67.7%; Thermal Degradation ([2]; SDA 8080 (0.2 mg/mL), surfactant 1 wt %, absorbance at 1040 nm): 50.0%; Thermal Degradation [2, 25]: 29.4%; Laser Stability [3, 20]: −* (greater than 20% degradation in dye absorbance over a period of 25 exposures); Laser Stability [3, 21]: + (less than a 20% degradation in dye absorbance over a period of 25 exposures)
dichlorophenol												inhibited PCR	
